From patent US20110282028A1, “METHOD FOR IDENTIFYING INHIBITORS OF LIPOTEICHOIC ACID SYNTHASE” (UNIVERSITY OF NEWCASTLE UPON TYNE, priority 2008, published 2011)

Columns and labels:
Format in all cases: cell-based, B. subtilis
[1] = tested on: ltaS mutant (strain 4286); experiment: Sensitivity to cations, dilutions spotted on NA plates, ltaS mutant; details: 37° C.
Experimental: (§1) FIG. 3—Effect of metal ion concentration of viability of wild-type and ltaS mutants: A. Growth of wild-type (168) and ltaS mutant (strain 4286) at 37° C. in on NA plates without additives (left), containing 0.5 mM Mg^2+ (middle) or with addition of 0.05 mM Mn^2+ (right). B. Growth of ltaS mutant (strain 4283, left) and wild-type (strain 168, right) on minimal medium plates containing 10, 100 and 500 μM Mg^2+ as indicated.
(§2) Liquid cultures of B. subtilis strains were grown in Difco Antibiotic Medium 3 (PAB), CH medium (Nicholson & Setlow, 1990), or S-medium (Karamata & Gross, 1970) at 37° C. Nutrient agar (Oxoid) plates were used for growth on solid medium, Modified Salts Medium plates with defined Mg^2+ concentrations were prepared as described previously (Carballido-López et al., 2006). The given concentration of Mg^2+ was achieved by addition of MgSO4 to the medium. DNA manipulations and B. subtilis strains were transformed according to the method of Anagnostopoulos and Spizizen (1961) as modified by Jenkinson (1983). Selection for B. subtilis transformants was carried out on nutrient agar (Oxoid), supplemented with antibiotics, as required, with: kanamycin ([…]) chloramphenicol ([…]), erythromycin ([…] ml^−1), lincomycin ([…] ml^−1) and/or spectinomycin ([…]). […]

[2] = tested on: wild-type (168); experiment: Sensitivity to cations, dilutions spotted on NA plates, wild-type; details: 0.05 mM MnSO4 added to nutrient agar (NA), 37° C.
Experimental: as §1, §2

[3] = tested on: ltaS mutant; experiment: Zone of inhibition on solid medium, ltaS mutant compared with wild-type; details: data not shown
Description: (§3) In the process of constructing the deletion strain, we noticed that the ltaS mutant was also hyper-sensitive to various antibiotics and lysozyme. […] In other experiments on solid medium the zone of inhibition of all antibiotics tested (kanamycin, ampicillin, vancomycin, penicillin, spectinomycin, erythromycin, lincomycin, carbenicillin) was wider for the ltaS mutant than for the wild-type (not shown). […] The general increase in sensitivity of the mutant to antibiotics and lysozyme is consistent with the notion that LTA also provides a protective layer that restricts the access of many bioactive agents to sensitive sites in the cell envelope.

[4] = tested on: ltaS mutant; experiment: Susceptibility of ltaS mutant to lysozyme; details: data not shown
Description: as §3

Compound | zone of inhibition for the ltaS mutant versus the wild-type [3] | other results
O=S(=O)([O-])[O-].[Mg+2] [Mg^2+, MgSO4] |  | growth of the ltaS mutant ([1]; 0.5 mM Mg^2+ added to nutrient agar (NA)): no effect
O=S(=O)([O-])[O-].[Mn+2] [MnSO4] |  | growth of the wild-type [2]: unaffected; growth of the ltaS mutant ([1]; 0.05 mM MnSO4 added to nutrient agar (NA)): abolished growth
CC1(C)S[C@@H]2[C@H](NC(=O)[C@H](N)c3ccccc3)C(=O)N2[C@H]1C(=O)O [ampicillin] | wider | 
CC1(C)S[C@@H]2[C@H](NC(=O)C(C(=O)O)c3ccccc3)C(=O)N2[C@H]1C(=O)O (some centres unmarked) [carbenicillin] | wider | 
CC[C@H]1OC(=O)[C@H](C)[C@@H](O[C@H]2C[C@@](C)(OC)[C@@H](O)[C@H](C)O2)[C@H](C)[C@@H](O[C@@H]2O[C@H](C)C[C@H](N(C)C)[C@H]2O)[C@](C)(O)C[C@@H](C)C(=O)[C@H](C)[C@@H](O)[C@]1(C)O [erythromycin] | wider | 
CCC[C@@H]1C[C@@H](C(=O)N[C@@H]([C@H]2O[C@H](SC)[C@H](O)[C@@H](O)[C@H]2O)[C@@H](C)O)N(C)C1 [lincomycin] | wider | 
CN[C@@H]1[C@H](O)[C@H](NC)[C@H]2O[C@@]3(O)C(=O)C[C@@H](C)O[C@H]3O[C@@H]2[C@H]1O [spectinomycin] | wider | 
CN[C@H](CC(C)C)C(=O)N[C@H]1C(=O)N[C@@H](CC(N)=O)C(=O)N[C@H]2C(=O)N[C@H]3C(=O)N[C@H](C(=O)N[C@H](C(=O)O)c4cc(O)cc(O)c4-c4cc3ccc4O)[C@H](O)c3ccc(c(Cl)c3)Oc3cc2cc(c3O[C@@H]2O[C@H](CO)[C@@H](O)[C@H](O)[C@H]2O[C@H]2C[C@](C)(N)[C@H](O)[C@H](C)O2)Oc2ccc(cc2Cl)[C@H]1O [vancomycin] | wider | 
lysozyme |  | susceptibility of the ltaS mutant to lysozyme [4]: increased susceptibility
penicillin | wider | 
